For data set [1], the system named is anti-isostere antibody of ddATP. The experiment in a line: Radioimmunological determination (RIA) of the specificity of the anti-isostere antibody of ddATP, tracer ddA-HS-K-125IY. To be noted: concentration of non-tagged antigen which inhibits 50% of the antigen-antibody binding. On the set-up: species or system rabbit. The text has this: The polyclonal antibodies were produced in the rabbit, according to standard methods.
The antibodies having an affinity for the ddNTP derivatives can be identified by immunological techniques either by means of immunoenzymatic determinations or by means of radioimmunological determinations (RIA).
The specificity of these antibodies was studied in relation to different analogues of ddATP.

The conditions of data set [2]: human, in vivo. The protocol:
Blood samples were collected from patients infected with HIV-1 and undergoing treatment comprising administration of ddI. The patients were under the supervision of Professor P. Dellamonica at the Archet Hospital in Nice. The blood samples were collected using cell preparation tubes (CPT) at the rate of two 4-ml tubes for each of the 4 patients participating in this study. Quantification of the ddI in the plasma was performed for each patient and expressed in ddI equivalents. Intracellular quantification of ddATP was performed after chromatography (on Sep Pak anionic cartridge) of the cellular lysates. For each fraction (500 μl), the cellular content of ddATP was determined directly and expressed in ddATP equivalents; quantification was then performed after dephosphorylation and expressed in ddA equivalents.

For the next data set, the system named is blood monocyte cells. The experiment in a line: In vitro cell model: blood monocyte cells incubated with ddI, RIA of supernatant ddI and intracellular ddATP after Sep Pak anionic cartridge. In kind it is in vitro ADME, human. To be noted: for Intracellular content in ddATP eq. (pmoles/10^6) cells: fractions 32-37. As for the experimental part:
Separation by anionic chromatography of the different phosphorylated metabolites stemming from the cellular metabolism of the ddI (ddIMP, ddAMP, ddADP and ddATP) was performed on Sep Pak anionic cartridge by means of a stepwise gradient using different concentrations of KCl (6 ml KCl 50 mM, 10 ml KCl 100 mM and 6 ml KCl 250 mM).
A certain number of controls were performed on an in vitro cell model. After separation by density gradient on Ficoll, the blood monocyte cells were incubated with different concentrations of ddI in the RPMI (at the level of 5×10^5 cells per ml).
The immunoreactivity present in the supernatant was expressed in equivalents (eq.) ddI established in relation to a ddI reference curve, and illustrated in Table 2 below. The ddATP immunoreactivity corresponds to the sum of the immunoreactivities present in the fractions 32-37 stemming from the separation of the intracellular contents on Sep Pak anionic cartridge. The immunoreactivity was expressed in ddATP equivalents in relation to a ddATP reference curve, and is also illustrated in Table 2 below.
The nature of the immunoreactive material present in the culture supernatant and in the intracellular medium was controlled by chromatography on a Sep Pak anionic cartridge. and detected by radioimmunological quantitation. […] This is shown in attached FIG. 2.

Where “and” joins values, the source holds several entries; their conditions need not be identical. Equal entries are not always repeated.

For orientation: IC50 means the midpoint of a concentration-inhibition curve. In data set [1], `Nc1ncnc2nc[nH]c12` [adenine] had an IC50 of 9 µM. That is a single-digit micromolar value.
On the same count and under the same terms, the figure for `Nc1ncnc2c1ncn2C1CCC(COC(=O)CC(O)(CC(=O)O)C(=O)O)O1` (centres unmarked) [isostere of ddATP, 5′-O-(3,4-dicarboxy-3-hydroxy)butanoate-2′,3′-didesoxyadenosine] is 5.2e-05 µM; for `Nc1ccn(C2CSC(CO)O2)c(=O)n1` (centres unmarked) [3TC, 2′,3′-dideoxyo-3′-thiacytidine] it is 200 µM.
Turning to `Nc1ncnc2c1ncn2[C@@H]1O[C@H](COP(=O)(O)OP(=O)(O)OP(=O)(O)O)[C@@H](O)[C@H]1O` [ATP], in data set [1], the IC50 worked out at 36 µM. This IC50 is about 5.6-fold lower than that of the molecule before.
On the same count and under the same terms, then `Nc1ccn([C@H]2CC[C@@H](CO)O2)c(=O)n1` [ddC], with greater than 1000 µM.
Consider `Nc1ncnc2c1ncn2[C@@H]1O[C@H](COP(=O)(O)O)[C@@H](O)[C@H]1O` [AMP], for which the IC50 in data set [1] is greater than 1000 µM.
For the molecule `Nc1ncnc2c1ncn2[C@H]1CC[C@@H](CO)O1` [ddA, 2′,3′-dideoxyadenosine], the IC50 in data set [1] amounted to 0.0004 µM.
As for `Nc1ncnc2c1ncn2[C@@H]1O[C@H](CO)[C@@H](O)[C@H]1O` [adenosine], the concentration for half-maximal inhibition (IC50) in data set [1] came to 2.4 µM. This IC50 is about 6000-fold higher than that of the molecule before.
Molecule `O=c1[nH]cnc2c1ncn2[C@H]1CC[C@@H](CO)O1` [ddI] had a half-maximal inhibitory concentration (IC50) in data set [1] of 0.002 µM. In addition, the plasma concentrations in data set [2] is listed as 2-6×10^−6. Further, the “intracellular immunoreactive content eluted in the elution volume of ddATP (yield)” value in the data set on blood monocyte cells (Sep Pak anionic cartridge) turned out to be 92%. The “share of supernatant immunoreactivity in fractions 1 to 5 (elution volume of ddI)” value with blood monocyte cells (culture supernatants n=4, Sep Pak anionic cartridge) was 100%. The “Concentration of ddI of the supernatant in ddI eq.” value with blood monocyte cells (incubated ddI 1 × 10^−4 M) was 130 µM and 150 µM. Besides, the “Concentration of ddI of the supernatant in ddI eq. (M)” value in the data set on blood monocyte cells (incubated ddI 1 × 10^−5 M) is 3.8 ± 0.34 × 10^−5 (n = 2) M; in the data set on blood monocyte cells (incubated ddI 1 × 10^−7 M) it was 2.74 × 10^−7 (n = 1) M; with blood monocyte cells (incubated ddI 5 × 10^−6 M) it was 5.74 × 10^−6 (n = 1) M. In addition, the entries for the “Intracellular content in ddATP eq. (pmoles/10^6) cells” value with blood monocyte cells (incubated ddI 1 × 10^−5 M), in the data set with blood monocyte cells (incubated ddI 1 × 10^−7 M) and in the data set on blood monocyte cells (incubated ddI 5 × 10^−6 M) were 10.4 ± 0.6 (n = 2) pmoles/10^6 cells, 0.15 (n = 1) pmoles/10^6 cells and 1.8 (n = 1) pmoles/10^6 cells, respectively. Also, the “ddI in the cells” value with blood monocyte cells (no immunoreactive material at the retention time of ddI) is recorded as “not detectable”.
In data set [1], `Nc1ncnc2c1ncn2[C@H]1CC[C@@H](COP(=O)(O)OP(=O)(O)OP(=O)(O)O)O1` [ddATP, 2′,3′-didesoxyadenosine-5′-triphosphate] displayed a 50% inhibitory concentration (IC50) of 0.0011 µM.
With `Nc1ncnc2c1ncn2[C@@H]1O[C@H](COP(=O)(O)OP(=O)(O)O)[C@@H](O)[C@H]1O` [ADP], in data set [1], the half-inhibitory concentration (IC50) was greater than 1000 µM.
As for `Nc1ncnc2c1ncn2C1CC(O)C(CO)O1` (centres unmarked) [dA], the 50% inhibitory concentration (IC50) in data set [1] turned out to be 0.3 µM.

Values taken from patent publication US8415095B2, “Use of nucleoside derivatives comprising a citrate group for the production of antibodies having an affinity for triphosphorylated nucleosides” (Centre National de la Recherche-Scientifique-CNRS, priority 2003, dated 2013).
